Source: patent US6391913B1 (priority 1998, dated 2002)
Where two headings read alike, the source gives them in different places.

Assays:
CCL6 cells = assay: Cytotoxicity of derivatives on CCL6 cell line (Alamar Blue assay, ID50); assay type: cell-based
Protocol: The cytotoxicity activity of the derivatives was evaluated on CCL6 cell line. The cells were maintained in RPMI 1640 supplemented with fetal calf serum 10% at 37° C., under a 5% CO2 atmosphere. Cells were plated at 2500 cells per well in 96 well plates. Drugs or derivatives were added 24 hours later. After three days of incubation with drugs or derivatives, 10 μl of Alamar Blue were added to the medium. The Alamar assay was performed as described by Pagé et al. (Pagé, B., et al., Int. J. Oncol., 3, 473-476, 1993), and the ID50 was calculated.

[1] = Chloroform extraction (chloroform-water), mixed one hour, HPLC
[2] = Ratio ID50 of derivative/ID50 of paclitaxel, CCL6 cells, three days of incubation, Alamar Blue

Molecule: 2′-[N-(aminohexyl)-amidohexanoic acid]paclitaxel ester [Taxamine 5]
- relative ID* CCL6 (CCL6 cells; [2]): 13

Molecule: CC(=O)OC1C(=O)C2(C)C(O)CC3OCC3(OC(C)=O)C2C(OC(=O)c2ccccc2)C2(O)CC(OC(=O)C(OC(=O)CCCCCCCCC(=O)O)C(NC(=O)c3ccccc3)c3ccccc3)C(C)=C1C2(C)C (centres unmarked) [Product 5, 2′-(decanedioic acid)-paclitaxel monoester]
- relative ID* CCL6 (CCL6 cells): 20

Molecule: CC(=O)OC1C(=O)C2(C)C(O)CC3OCC3(OC(C)=O)C2C(OC(=O)c2ccccc2)C2(O)CC(OC(=O)C(OC(=O)CCCCC(=O)NCCN)C(NC(=O)c3ccccc3)c3ccccc3)C(C)=C1C2(C)C (centres unmarked) [Taxamine 1, 2′-[N-(aminoethyl)-amidohexanoic acid]-paclitaxel ester]
- relative ID* CCL6 (CCL6 cells; [2]): 24
- Organic phase/aqueous phase [1]: 151

Molecule: CC(=O)O[C@H]1C(=O)[C@@]2(C)[C@H]([C@H](OC(=O)c3ccccc3)[C@]3(O)C[C@H](OC(=O)[C@H](O)[C@@H](NC(=O)c4ccccc4)c4ccccc4)C(C)=C1C3(C)C)[C@]1(OC(C)=O)CO[C@@H]1C[C@@H]2O [paclitaxel, reference compound]
- relative ID* CCL6 (CCL6 cells; [2]): 1
